Laboratory results taken from patent US11266743B2, “Peptide compositions and methods of use thereof” (priority 2017, dated 2022).
Entries after “also recorded” stand apart in the source; their conditions may differ.

Key:
Type in all cases: cell-based
P. aeruginosa biofilms = experiment: Activity against P. aeruginosa biofilms; settings: 25 μM
Method: Bacterial biofilm formation on implanted medical devices is a serious medical problem because these biofilms can lead to life-threatening systemic infections. We tested selected peptides and rationally designed variants against biofilms formed by P. aeruginosa. […] D-NOGCON reduces viable bacteria by 3.6 logs ( 1/3000 reduction) at 25 μM, while the best conventional antibiotic, Ciprofloxacin, reduced viable bacteria by only 1.7 logs ( 1/55 reduction) at 25 μM.

[1] = tested on: Hela pTRE-LucIVS2-705 cells; experiment: PNA705 mediated luciferase splice correction (luminescence, RLU/μg protein)
Method: To assess nuclear cargo delivery and splice correction, PNA705 (SEQ ID NO: 11) was used. Luciferase production was quantified at both the protein (FIG. 6) and mRNA levels (FIG. 7). To quantify functional luciferase levels following splice correction, Hela pLuc705 cells were treated with a 2× serial dilution starting at 5 μM of CPP-PNA705 for 30 minutes in serum free DMEM at 37° C., washed in PBS, and allowed to recover for 24 hours in complete media. To assess the impact of endosomal entrapment and subsequent lysosomal degradation, some cells were co-treated with the endosomal acidification inhibitor chloroquine (120 μM) along with 5 μM CPP-PNA705. Cell lysates were assayed for luciferase by luminescence. To control for total cell density, lysates were also analyzed for total protein by the BCA assay.
Hela pTRE-LucIVS2-705 cells were seeded on flat-bottom 96-well plates at 10,000 cells per well in 200 μl complete DMEM. The following day, cells were washed in phosphate buffered saline and topped with premixed 50 μl 2× serum/phenol red free DMEM (Gibco)+50 μl peptide cleavage solution (ddH2O+peptide). Cells were transfected for 30 min at 37° C. with 5% CO2. The transfection solution was removed, cells were washed with PBS, and topped with 100 μl complete DMEM. The next day (24 hour recovery) cells were washed in PBS and lysed in 20 μl reporter lysis buffer (Promega E4030) following the manufacturers protocol. 10 μl of the lysate was removed and total protein concentration was determined using the bicinchoninic acid assay (Pierce BCA Protein Assay-ThermoFisher 23225). The 96-well plate containing the remaining 10 μl lysate was analyzed for luminescence using the Luciferase Assay System (Promega E1500) on a BioTek SYNERGY™ 2 plate reader with injector ports. Data was expressed as Relative Luminescence Units/μg Protein (RLU/μg Protein) and positive wells were defined as those whose RLU/μg Protein values exceeded the average for the plate by at least three standard deviations. […]

[2] = tested on: HeLa, RAW264.7, HepG2, and MCF-7 cells; experiment: TAMRA delivery assay (flow cytometry, confocal microscopy); settings: 0.5 μM CPP-TA + 4.5 μM CPP-C, 30 minutes at 4° C., 22° C., or 37° C.
Method: To determine the effect of the PNA cargo on delivery, we labeled CPPs, lacking the PNA705 cargo, with the fluorophore TAMRA on a C-terminal cysteine residue (CPP-TA) and measured delivery to multiple cell types. TAMRA-labelled CPPs, mixed with unlabeled CPPs at a 1:10 ratio in serum-free DMEM for a final concentration of 5 μM total peptide, was added to HeLa, RAW264.7, HepG2, and MCF-7 cells in 12-well cell culture plates and incubated for 30 minutes at 4° C., 22° C., or 37° C. prior to flow cytometric analysis (FIGS. 9-16). […] Delivery of TAMRA was verified by confocal microscopy for each cell type.
Hela, RAW264.7, HCT116, HepG2, and MCF-7 cells were plated in 12-well plates at 100,000 cells/well. After 24 hours, cells were gently washed in PBS, topped with 500 μl of CPP-TA solution containing 0.5 μM CPP-TA+4.5 uM CPP-C in sfDMEM without phenol red, and incubated for 30 min at either 4° C., 23° C., or 37° C. The incubation solution was aspirated and cells were treated with 100 μl 0.025% Trypsin for 3 minutes at 23° C. 500 μl DMEM containing 2% FBS, 125 nM Sytox Green, and 20 mM HEPES was used to suspend the cells. Cells were transferred to a filter-topped flow cytometry tube and analyzed on a BD™ LSR II flow cytometer. Cells displaying a normal morphology were gated and first analyzed for GFP fluorescence using the 488 nM laser. GFP negative cells were used to generate a histogram of TAMRA fluorescence, measured with the 543 nM laser.
Cells were treated as described above for the TAMRA delivery assay and immediately imaged to avoid artifacts resulting from fixation. The distribution of TAMRA and Sytox Green was analyzed using a confocal scanning Nikon Eclipse Ti2 inverted microscope using a 40× oil-immersion objective. Sytox Green was excited using the 488 nM laser and TAMRA was excited using the 543 nM laser.

Hela pTRE-LucIVS2 cells = experiment: ALAMARBLUE toxicity assay of CPP-PNA705; settings: 10 μM CPP-PNA705 conjugate, after 24 hours
Method: CPP-PNA705 cytotoxicity was assessed using several methods known in the art. A Lactate Dehydrogenase (LDH) assay (FIG. 5A) measured the acute cytotoxicity and detects LDH released by cells because of membrane damage resulting from exposure to the CPPs. An ALAMARBLUE® assay (FIG. 5B) and a Bicinchoninic Acid (BCA) Assay (FIG. 5C) both measure the impact of exposure after 24 hours. In the ALAMARBLUE®, assay some reduction in metabolic activity was detected in Hela705 cells treated with 20 μM CPP-PNA705 concentrations for 1 hour.
Hela pTRE-LucIVS2 cells were plated in 96-well plates at 10,000 cells/well. After 24 hours, cells were treated with CPP constructs for 1 Hr in sfDMEM at 37° C., washed in PBS, and allowed to recover for 24 hours in 100 μl complete media. 10 μl ALAMARBLUE® (ThermoFisher) was added to each well and cells were incubated fo4r 2 Hrs at 37° C. Reduction of ALAMARBLUE® was determined by fluorescence at […].

[3] = tested on: Hela cells stably transfected with mCherry and GFP1-10; experiment: Split GFP assay (GFP-11 delivery); settings: all concentrations and temperatures studied
Method: To test the ability of CPPs to deliver other cargoes, specifically a protease-sensitive peptide cargo, we modified the well-known split-GFP assay. CPPs were tested for the ability to deliver the polar 16-residue GFP-11 peptide across the membrane barrier. This peptide rescues the fluorescence of the cytosolic endogenous, non-fluorescent GFP1-10 protein. Here, we stably transfected Hela cells with a plasmid containing the full length mCherry and the non-fluorescent GFP1-10. Following incubation with CPP-GFP-11 constructs at multiple concentrations and temperatures for 30 minutes in serum free DMEM, cells were analyzed by flow cytometry for mCherry and GFP fluorescence (FIG. 17). Live cells expressing mCherry (˜50% of the total cells) were gated and their GFP fluorescence was analyzed. Unlike the luciferase splice correction assay where a single corrected mRNA transcript serves as template for many molecules of functional luciferase, the split GFP assay is stoichiometric; a single GFP-11 peptide can bind to a single GFP1-10 protein producing a finite fluorescent response.
Hela cells were transfected with p_mCherry-GFP1-10 (Addgene plasmid #78591) using LIPOFECTAMINE® 3000 (ThermoFisher). Single mCherry positive cells were sorted into 96-well plates using a BD™ FACSARIA™ cell sorter and colonies were maintained under G418 selection at […]. Stably transfected cells were plated in 12-well plates at 100,000 cells/well and grown overnight in complete DMEM. Cells were washed in PBS and incubated in 500 μl of CPP-GFP-11 solution at variable concentrations at 23° C. and 37° C. for 30 minutes. The CPP-GFP-11 solution was aspirated and 100 μl of 0.025% trypsin solution was added to each well. After detachment, cells were suspended in 500 μL of PBS+2% FBS and 20 mM HEPES. Cells were analyzed using a BD™ LSRII flow cytometer. Cells displaying a normal morphology were gated and first analyzed for mCherry fluorescence using the 543 nM laser. mCherry+ cells were used to generate a histogram of GFP fluorescence measured with the 488 nM laser.

In the case of `O=C(O)c1cn(C2CC2)c2cc(N3CCNCC3)c(F)cc2c1=O` [Ciprofloxacin, reference compound], the “reduction of viable bacteria in biofilm” value (P. aeruginosa biofilms) is reported as 1.7 logs.

For RKKRWFRRRRPKWKK [CPP-1], the “efficiency of PNA705 delivery in cell culture (words, rank order)” value (“efficiency of PNA705 delivery” for short) [1] was “most efficient at PNA delivery”, the “TAMRA delivery (words, rank order)” value [2] was “CPP-2»CPP-3=CPP-1>CPP-4>TAT=penetratin” and the “reduction in metabolic activity” value (Hela pTRE-LucIVS2 cells) was 20%. For the same molecule, the “GFP-11 delivery” value [3] was “deliver GFP-11 to more cells than Tat and penetratin; also recorded: most efficient at GFP-11 delivery”.

With RRKKIWFRRLRMK [CPP-4] the “efficiency of PNA705 delivery” value [1] was “successfully delivers PNA705”, the “TAMRA delivery (words, rank order)” value [2] was “CPP-2»CPP-3=CPP-1>CPP-4>TAT=penetratin; also recorded: does not deliver GFP-11 or TAMRA significantly” and the “reduction in metabolic activity” value (Hela pTRE-LucIVS2 cells) was “little effect”. For the same molecule, the “GFP-11 delivery” value [3] was “does not deliver GFP-11 or TAMRA significantly”.

For RRRRRRRRR [Arg9, reference compound], the “efficiency of PNA705 delivery” value [1] was “much better than Tat”.
